Data: paper PMC5793714, “Functional implications of corticosteroid-binding globulin N-glycosylation” (Journal of Molecular Endocrinology, 2017)

Key:
rat CBG = molecular target: T1, rat CBG (Rattus norvegicus, UniProt P31211); assay: saturation binding, dextran-coated charcoal, Scatchard
T1 construct: gene Serpina6; full-length cDNA in pcDNA3, secreted mature N-glycosylated protein from stably transfected CHO-S cells (also Lec1 and Lec2 lines), FPLC semi-purified or concentrated medium; no tag told
T1 sequence (P31211 23-396): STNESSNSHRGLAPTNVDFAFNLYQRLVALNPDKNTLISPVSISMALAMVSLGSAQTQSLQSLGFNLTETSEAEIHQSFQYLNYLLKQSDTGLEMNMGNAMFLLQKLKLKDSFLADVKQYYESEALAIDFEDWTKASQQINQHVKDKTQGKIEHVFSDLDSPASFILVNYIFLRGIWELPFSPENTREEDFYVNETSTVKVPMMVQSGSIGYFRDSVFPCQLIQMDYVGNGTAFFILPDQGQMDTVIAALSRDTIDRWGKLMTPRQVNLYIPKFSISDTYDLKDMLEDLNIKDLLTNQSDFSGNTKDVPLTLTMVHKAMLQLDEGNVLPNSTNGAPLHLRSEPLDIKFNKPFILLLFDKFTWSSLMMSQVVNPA

[1] = molecular target: T2, human CBG (corticosteroid-binding globulin, SERPINA6) (Homo sapiens, UniProt P08185); assay: as above
T2 construct: full-length cDNA in pRc/CMV, secreted mature N-glycosylated protein from stably transfected CHO-S cells (also Lec1 and Lec2 lines), semi-purified by HiTrap QFF FPLC or concentrated medium; no tag told
T2 sequence (P08185 23-405): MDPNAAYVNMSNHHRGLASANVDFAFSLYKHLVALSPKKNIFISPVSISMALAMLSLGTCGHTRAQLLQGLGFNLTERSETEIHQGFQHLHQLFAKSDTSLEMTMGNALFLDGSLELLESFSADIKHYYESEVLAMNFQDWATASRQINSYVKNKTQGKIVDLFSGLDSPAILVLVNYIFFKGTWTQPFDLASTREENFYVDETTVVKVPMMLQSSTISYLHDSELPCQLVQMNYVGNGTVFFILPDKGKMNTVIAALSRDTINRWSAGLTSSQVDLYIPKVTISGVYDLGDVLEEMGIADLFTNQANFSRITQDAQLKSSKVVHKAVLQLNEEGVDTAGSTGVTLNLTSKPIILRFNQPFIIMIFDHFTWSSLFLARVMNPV

Kd (rat CBG) | Kd [1] | Structure (SMILES)
2.1 nM |  | C[C@]12C[C@H](O)[C@H]3[C@@H](CCC4=CC(=O)CC[C@@]43C)[C@@H]1CC[C@@H]2C(=O)CO [corticosterone]
 | 1.1 nM | C[C@]12CCC(=O)C=C1CC[C@@H]1[C@@H]2[C@@H](O)C[C@@]2(C)[C@H]1CC[C@]2(O)C(=O)CO [cortisol]
